Experimental findings from PMC8126888 (RSC Medicinal Chemistry, 2020) are described below.

For data set [1], the system named is Leishmania infantum MHOM/MA(BE)/67/ITMAP263 intracellular amastigotes. Briefly: microbe, parasite or virus in culture. As to conditions: Macrophage, in Mus musculus.
In data set [2] the test system is Trypanosoma cruzi, Tulahuen CL2, beta-galactosidase strain. Briefly: microbe, parasite or virus in culture. Particulars: MRC5, read-out: T. cruzi Tulahuen C4 (LacZ) IC50.
Data set [3] has as its system L. donovani MHOM/ET/67/L82 intracellular amastigotes. Briefly: microbe, parasite or virus in culture. Particulars: Leishmania donovani, read-out: L. donovani MHOM/ET/67/L82 intracellular amastigotes IC50.
Data set [4] relates to primary peritoneal mouse macrophages (PMM). Description: cells. Particulars: Macrophage, read-out: PMM IC50.
The nature of data set [5]: in vitro. Particulars: human.
Data set [6] can be described thus: in vitro. Particulars: human, THP-1 cells differentiated with PMA.
The subject of data set [7] is L. donovani MHOM/SD/62/1SCL2D intracellular amastigotes. Briefly: microbe, parasite or virus in culture. As to conditions: Leishmania donovani, read-out: L. donovani MHOM/SD/62/1SCL2D intracellular amastigotes IC50.
Data set [8] relates to axenic L. don. amastigotes (MHOM/SD/62/1S-CL2, LdBOB). Briefly: microbe, parasite or virus in culture. Particulars: Leishmania donovani.
Data set [9] is described as follows: in vitro. Particulars: human, HepG2 cells.
The subject of data set [10] is primary peritoneal mouse macrophages (PMM). Description: Cytotoxicity to PMM (microscopic scoring within susceptibility assay).
Data set [11] shares this test system. As to conditions: PMM IC50 / L. infantum IC50.
For data set [12], the system named is Leishmania infantum MHOM/MA(BE)/67/ITMAP263 intracellular amastigotes. Particulars: for IC50: read-out: L. infantum MHOM/MA(BE)/67/ITMAP263 intracellular amastigotes IC50; for L. Inf. pIC50: from L. infantum intracellular amastigote IC50.
The test system of data set [13] is L. donovani MHOM/ET/67/L82 intracellular amastigotes. Particulars: read-out: L. donovani MHOM/ET/67/L82 intracellular amastigotes IC50.
Data set [14] deals with MRC-5SV2 cells. Briefly: Cytotoxicity assay on MRC-5SV2 cells (resazurin).
The nature of data set [15]: in vitro. Particulars: mouse, s9, pH 7.4, Clint mouse mic., Fig. 2; mouse microsomes (S9 fractions).
A short description of data set [16]: in vitro. Particulars: human, s9, pH 7.4, Clint human mic., Fig. 2; human microsomes (S9 fractions).
The mark [17] stands for this setting: read-out: L. Inf. pIC50 (converted).
Setting [18] is: read-out: L. infantum MHOM/MA(BE)/67/ITMAP263 intracellular amastigotes IC50.
Where [19] appears, read: read-out: L. donovani MHOM/SD/62/1SCL2D axenic-cidal amastigotes IC50.
The mark [20] stands for this setting: read-out: L. inf. pIC50, intracellular amastigotes in PMM (converted), geometric mean of a minimum of two experiments ± standard error.
[21] abbreviates: read-out: L. don. pIC50 (converted).

Where two headings read alike, the source gives them in different places.

For the compound `CCCOc1cc(C)c(C)cc1S(=O)(=O)NC1CCCC1` [DNDI0002550535], the IC50 in data set [1] (setting [17]), in [1] (setting [18]), in [2], in data set [3] and in data set [4] was greater than 32 µM throughout. In data set [5], the CC50 at 3 days is greater than 32 µM.
On to `CCCCCOc1cc(C)c(Cl)cc1S(=O)(=O)NCc1ccco1` [DNDI0002567970], for which, in data set [6], the CC50 at 120 h is greater than 50 µM. Also, the IC50 in data set [7] is 48 µM; in [1] (setting [17]), 1.07 µM; in data set [1] (setting [18]), 1.08 µM; in data set [8] (setting [19]), 12 µM; in data set [3], 4.76 µM; in [4], greater than 32 µM. In addition, the CC50 at 3 days in data set [5] was 11.7 µM. Also, the CC50 in data set [9] was greater than 50 µM.
As for `COc1ccc(S(=O)(=O)N(C)C)cc1NC(=O)Cn1c(=O)oc2ccccc21` [Compound Z15399918], the IC50 in data set [10], in [12] and in [13] was greater than 32 µM throughout. Further, in data set [11], the “SI (vs PMM)” value turned out to be 1. This compound showed a CC50 in [14] greater than 32 µM.
As to `CCCCOc1cc(C)c(C(C)C)cc1S(=O)(=O)NC1CCCCC1` [Compound Z1346174753], the figures for the IC50 in data set [10], in data set [12] and in data set [13] were 16 µM, 1.01 µM and 3.39 µM, respectively. Besides, in data set [11], the “SI (vs PMM)” value was determined as 16. The “L. Inf. pIC50” value in data set [12] was determined as 6. In data set [14], the CC50 stood at 3.74 µM.
In the case of `COc1cc(S(=O)(=O)NC(C)c2ccccc2)c(OC)cc1C` (stereo not drawn) [DNDI0002622495], the IC50 in data set [1] (setting [17]), in data set [1] (setting [18]), in [2], in data set [3] and in data set [4] was greater than 32 µM in each case. Moreover, the CC50 at 3 days in data set [5] was greater than 32 µM.
On to `CCCCOc1cc(C)c(Cl)cc1S(=O)(=O)NCc1cccnc1` [DNDI0002558122], for which the IC50 is 16.6 µM in [1] (setting [17]), 16.6 µM in data set [1] (setting [18]), 25.4 µM in [3] and greater than 32 µM in data set [4]. The CC50 at 3 days in data set [5] was greater than 32 µM.
On to `O=S(=O)(c1ccc2nncn2c1)N(Cc1ccccc1F)c1ccc2c(c1)OCO2` [DNDI0003321889], for which, in data set [8] (setting [19]), the IC50 was greater than 30 µM.
For `CCCOc1cc(C)c(Cl)cc1S(=O)(=O)NCc1cccs1` [DNDI0002572626], the IC50 is 25.1 µM in data set [1] (setting [17]); 25.4 µM in [1] (setting [18]); greater than 32 µM in [2]; greater than 32 µM in data set [3]; greater than 32 µM in data set [4]. The CC50 at 3 days in data set [5] is greater than 32 µM.
In the case of `CCCOc1cc(C)c(C)cc1S(=O)(=O)NC1CCCCC1` [Compound Z1198524053], the IC50 in data set [10] is greater than 32 µM; in data set [12], 5.38 µM; in data set [13], greater than 32 µM. Besides, the “SI (vs PMM)” value in data set [11] is recorded as 6. The “L. Inf. pIC50” value in [12] came to 5.27. Moreover, the CC50 in data set [14] was greater than 32 µM.
Consider `CCCOc1cc(C)c(C)cc1S(=O)(=O)NCC1CCCO1` (stereo not drawn) [DNDI0002622936], for which the IC50 in data set [1] (setting [17]) is 25.1 µM; in data set [1] (setting [18]) it was 25.4 µM; in data set [2], greater than 32 µM; in [3], greater than 32 µM; in data set [4], greater than 32 µM. This compound also registered a CC50 at 3 days in data set [5] greater than 32 µM.
As for `CCCCCOc1cc(C)c(C)cc1S(=O)(=O)NC1CC(C)(C)NC(C)(C)C1` [Compound Z2035103903], the IC50 in data set [10] is greater than 32 µM; in data set [12], 4.76 µM; in data set [13] it was 16.2 µM. Besides, the “SI (vs PMM)” value in data set [11] is given as 7. In addition, the “L. Inf. pIC50” value in [12] came out at 5.32. In data set [14], the CC50 was found to be 10.9 µM.
For the compound `Cc1nnc2ccc(S(=O)(=O)N(Cc3cccc(F)c3)c3ccc4c(c3)OCO4)cn12` [DNDI0003321887], the IC50 in data set [8] (setting [19]) is greater than 30 µM.
With `CCCCCOc1cc(C)c(Cl)cc1S(=O)(=O)NCc1cccs1` [Compound 7], the IC50 is 0.447 µM in data set [1] (setting [20]) and 4.37 µM in [8] (setting [21]). Moreover, the microsomal CLint at 0.5 μM in data set [15] was found to be 693 µL/min/mg; in data set [16], 624 µL/min/mg.
In the case of `CN(C)S(=O)(=O)c1cccc(NC(=O)CN2CCCc3ccccc32)c1` [Compound Z46159369], the IC50 in data set [10], in [12] and in data set [13] was greater than 32 µM in each case. Besides, the “SI (vs PMM)” value in [11] was 1. In data set [14], this compound came in with a CC50 greater than 32 µM.
For `COc1cc(C)c(C)cc1S(=O)(=O)NC1CCCCC1` [Compound Z1542834122], the IC50 in data set [10], in data set [12] and in [13] was greater than 32 µM throughout. The “SI (vs PMM)” value in [11] is recorded as 1. For the same compound, in [14], the CC50 is greater than 32 µM.
As to `CCN(CC)S(=O)(=O)c1ccc(OC)c(NC(=O)CNc2cccc3c2CCCC3)c1` [Compound Z133511332], the IC50 in data set [10], in data set [12] and in [13] was greater than 32 µM throughout. In [11], the “SI (vs PMM)” value is given as 1. Further, the CC50 in [14] is greater than 32 µM.
For the compound `CCc1c(C(=O)N2CCc3ccc(S(=O)(=O)NC)cc32)[nH]c(C)c1C(C)=O` [Compound Z1262206860], the IC50 in data set [10], in data set [12] and in data set [13] was greater than 32 µM throughout. In [11], the “SI (vs PMM)” value was determined as 1. This compound had a CC50 in data set [14] greater than 32 µM.
Turning to `COc1ccc(S(=O)(=O)N(C)C)cc1NC(=O)Cn1c(C)cc2ccccc21` [Compound Z109062140], the IC50 in data set [10], in [12] and in [13] was greater than 32 µM each time. Further, the “SI (vs PMM)” value in [11] is 1. This compound returned a CC50 in data set [14] greater than 32 µM.
On to `CCCCCOc1cc(C)c(C)cc1S(=O)(=O)NC1CCCCC1` [Compound Z1201712752], for which the IC50 in [10] is greater than 32 µM; in data set [12], 1.04 µM; in [13], 4.32 µM. Moreover, the “SI (vs PMM)” value in data set [11] is 31. Also, the “L. Inf. pIC50” value in data set [12] was found to be 5.98. Further, the CC50 in data set [14] stood at 26.1 µM.
As to `CCCCCOc1cc(C)c(Cl)cc1S(N)(=O)=O` [Compound Z1724003560], the IC50 in data set [10], in data set [12] and in [13] was greater than 32 µM each time. The “SI (vs PMM)” value in [11] turned out to be 1. The same compound registered a CC50 in data set [14] greater than 32 µM.
As for `CCOc1cc(S(=O)(=O)N(Cc2ccccc2)Cc2ccccc2)c(OCC)cc1C` [Compound Z1198037468], the IC50 is greater than 32 µM in data set [10], 0.87 µM in data set [12] and 25.4 µM in data set [13]. The “SI (vs PMM)” value in data set [11] is on record as 37. Moreover, the “L. Inf. pIC50” value in data set [12] came to 6.06. The compound further displayed a CC50 in [14] greater than 32 µM.
For the compound `COc1cc(S(=O)(=O)N(Cc2ccccc2)Cc2ccccc2)c(OC)cc1C` [Compound 6], the IC50 in data set [1] (setting [20]) is 0.501 µM; in data set [8] (setting [21]), 1.51 µM. Further, the microsomal CLint at 0.5 μM in data set [15] is 1080 µL/min/mg; in data set [16], 828 µL/min/mg.
Take `CCCCCOc1cc(C)c(C)cc1S(=O)(=O)NC1CCCC1` [Compound 8]: the IC50 in data set [1] (setting [20]) is 0.589 µM; in data set [8] (setting [21]), 12 µM. Further, the microsomal CLint at 0.5 μM in data set [15] was 416 µL/min/mg; in data set [16] it was 567 µL/min/mg.
Consider `COc1cc(S(=O)(=O)N2CCN(Cc3ccccc3)CC2)c(OC)cc1C` [Compound Z1532943652], for which the IC50 in [10], in [12] and in data set [13] was greater than 32 µM throughout. Moreover, in [11], the “SI (vs PMM)” value turned out to be 1. The compound further displayed a CC50 in [14] greater than 32 µM.
As for `COc1cc(S(=O)(=O)NCc2ccccc2)c(OC)cc1C` [DNDI0002564850], the IC50 in data set [1] (setting [17]), in data set [1] (setting [18]), in [2], in data set [3] and in data set [4] was greater than 32 µM each time. In data set [5], this compound yielded a CC50 at 3 days greater than 32 µM.
Take `COc1ccc(S(=O)(=O)N(C)C)cc1NC(=O)C1Cc2ccccc2O1` (stereo not drawn) [Compound Z109062150]: the IC50 in [10], in [12] and in data set [13] was greater than 32 µM in each case. Moreover, the “SI (vs PMM)” value in data set [11] came out at 1. For the same compound, in data set [14], the CC50 was greater than 32 µM.
For the compound `CCN(CC)S(=O)(=O)c1ccc(OC)c(NC(=O)CN(C)c2ccccc2)c1` [Compound Z46175669], the IC50 in data set [10], in [12] and in data set [13] was greater than 32 µM in each case. Further, the “SI (vs PMM)” value in data set [11] was 1. In data set [14], this compound returned a CC50 greater than 32 µM.

Broadly, the microsomal CLint is the rate of metabolic loss divided by the concentration.
